Earlier results, collected in patent US7585520B2, “Compositions containing both sedative and non-sedative antihistamines and sleep aids” (Collegium Pharmaceutical, Inc., priority 2001, dated 2009).

Conditions: drug or active metabolite

| SMILES | Elimination half-life |
| --- | --- |
| COc1ccc(CCN2CCC(Nc3nc4ccccc4n3Cc3ccc(F)cc3)CC2)cc1 [Astemizole] | 20 to 30 h |
| Clc1ccc2c(c1)CCc1cccnc1C2=C1CCNCC1 [Descarboethoxyloratidine] | 17.3 to 24 h |
| Oc1ccc(CCN2CCC(Nc3nc4ccccc4n3Cc3ccc(F)cc3)CC2)cc1 [Desmethylastemizole] | 290 h |

The next lines start with the values.

| Elimination half-life | SMILES |
| --- | --- |
| 13 to 16 h | CC(C)(C)c1ccc(C(=O)CCCN2CCC(OC(c3ccccc3)c3ccccc3)CC2)cc1 [Ebastine] |
| 8 to 13 h | CN(c1nccc(=O)[nH]1)C1CCN(c2nc3ccccc3n2Cc2ccc(F)cc2)CC1 [Mizolazine] |
